Reference: patent US10254278B2, “Method and system for detection of natural high intensity sweeteners that contain hydroxyl groups” (PureCircle Sdn Bhd, priority 2011, dated 2019)
In brackets after ≈: the same amount, converted by molar mass.

System: antiserum KLH-R3 (I) (polyclonal anti-Rebaudioside D antibody)
Experiment: Competitive indirect ELISA for Rebaudioside D (conjugate-coated format, antiserum KLH-R3 (I) / BSA-R3 coating conjugate)
Type: binding, rabbit
Details: for cross-reactivity CR = (IC50 Rebaudioside D/IC50 compound)×100: developed immunoassay for Reb D
Procedure: The hapten R1 (rebaudioside D) (5 mg suspended in 0.5 mL of 10 mM PBS) and KLH-conjugates or BSA-R (n=2-5), (0.5 mL of conjugate at a concentration of […], 10 mM PBS) were injected intramuscularly into two New Zealand California white rabbits, with 0.5 mL of complete Freund's adjuvant in the first immunization, and 0.5 mL of incomplete Freund's adjuvant in the following. Immunizations were performed every 21 days, and 10 days after each immunization bleedings were carried out to know the title and properties of serum from each animal. After five cycles of immunization, blood was obtained by bleeding, leaving it to coagulate overnight at 4° C. Subsequently, after adding sodium azide (0.02%) serum was separated by centrifugation and stored at −80° C.
First, the avidity of the sera obtained against different coating conjugates was determined by non-competitive indirect ELISA using different antisera (serial dilutions from 1/1000 to 1/64000) and concentrations of the coating conjugates (0.001 to 1.0 mg/L). Similarly, the avidity to the enzyme-tracer was determined by a direct non-competitive ELISA using several dilutions of the tracer (serial dilutions from 0.001 to 1.0 mg/L) and serum (from 1/500 to 1/512000).
The titres obtained from conjugate-coated format indirect format (ELISA plates coated with protein-hapten) were higher than those obtained for direct format (ELISA plates coated with serum), choosing as optimal concentrations of coating conjugates and dilution of serum, those that produced absorbance values around 0.8-1.2 units in absence of analyte (Rebaudioside D), to carry out competitive tests.
Flat-bottomed polystyrene ELISA plates were coated overnight at 4° C. with 100 μL/well of the appropriate coating conjugate solution in CB. The following day, plates were washed six times with 15 mmol/L PBS-T pH 8.5, and then 50 μL of the serum dilution and 50 μL of Reb D in PBS-T were added and incubated at room temperature during 1 h. After washing, an incubation step (1 h) with 100 μL/well GAR-HRP (diluted 1/2000 in PBS-T) was accomplished, and plates washed again. Finally, 100 μL/well of substrate solution (2 mg/mL OPD and 0.012% H2O2 in 25 mmol/L sodium citrate and 62 mmol/L sodium phosphate, pH 5.5) was added. The enzymatic reaction was stopped after 10 min by addition of 2.5 mol/L H2SO4 (50 μL/well), and the absorbance was read in a dual-wavelength mode (490, 650 nm).
The optimization was performed for the most sensitive assay (antiserum KLH-R3/BSA-R3 coating conjugate) using Reb D as competitor analyte.
The influence of several experimental parameters such as ionic strength, pH, surfactant concentration and time of competition on assay characteristics was examined in order to improve the immunoassay performance (sensitivity, maximum absorbance, working or dynamic range and detection limit). Criteria used to evaluate the assay performances were sensitivity (IC50), maximum absorbance (A0), dynamic range (DR, established between the Reb D concentrations producing 20% and 80% colour inhibition) and limit of detection (LD, estimated at 10% inhibitory concentration).
Assay selectivity was evaluated by determining the cross-reactivity with two sugars derived from Stevia rebaudiana, such as rebaudioside A and stevioside. The cross reactivity values were calculated according to the following equation: CR=(IC50 [mg/L] Rebaudioside D/IC50 [mg/L] compound)×100.

[1] = cross-reactivity study, related compound as competitor

C=C1C[C@@]23CC[C@H]4[C@@](C)(CCC[C@@]4(C)C(=O)O[C@@H]4O[C@H](CO)[C@@H](O)[C@H](O)[C@H]4O)[C@@H]2CC[C@]1(O[C@@H]1O[C@H](CO)[C@@H](O)[C@H](O)[C@H]1O[C@@H]1O[C@H](CO)[C@@H](O)[C@H](O)[C@H]1O)C3 [Stevioside]
IC50 [1]: 418,605 μg/L | cross-reactivity CR = (IC50 Rebaudioside D/IC50 compound)×100: 8.6×10^−5%

C=C1C[C@@]23CC[C@H]4[C@@](C)(CCC[C@@]4(C)C(=O)O[C@@H]4O[C@H](CO)[C@@H](O)[C@H](O)[C@H]4O)[C@@H]2CC[C@]1(O[C@@H]1O[C@H](CO)[C@@H](O)[C@H](O[C@@H]2O[C@H](CO)[C@@H](O)[C@H](O)[C@H]2O)[C@H]1O[C@@H]1O[C@H](CO)[C@@H](O)[C@H](O)[C@H]1O)C3 [Rebaudioside A]
IC50 [1]: 225 µg/L (≈ 233 nM) | cross-reactivity CR = (IC50 Rebaudioside D/IC50 compound)×100: 0.16%

C=C1C[C@@]23CC[C@H]4[C@@](C)(CCC[C@@]4(C)C(=O)O[C@@H]4O[C@H](CO)[C@@H](O)[C@H](O)[C@H]4O[C@@H]4O[C@H](CO)[C@@H](O)[C@H](O)[C@H]4O)[C@@H]2CC[C@]1(O[C@@H]1O[C@H](CO)[C@@H](O)[C@H](O[C@@H]2O[C@H](CO)[C@@H](O)[C@H](O)[C@H]2O)[C@H]1O[C@@H]1O[C@H](CO)[C@@H](O)[C@H](O)[C@H]1O)C3 [Rebaudioside D]
IC50 (PBS 5 mmol/L, 0.05% Tween 20, pH 7.5): 1.53 ± 0.41 µg/L (≈ 1.35 nM) | IC50 (PBS 10 mmol/L, 0.05% Tween 20, pH 7.5): 1.30 ± 0.35 µg/L (≈ 1.15 nM) | IC50 (PBS 15 mmol/L, 0.05% Tween 20, pH 7.5): 0.77 ± 0.24 µg/L (≈ 0.682 nM) | IC50 (PBS 20 mmol/L, 0.05% Tween 20, pH 7.5): 1.02 ± 0.28 µg/L (≈ 0.903 nM) | IC50 (PBS 30 mmol/L, 0.05% Tween 20, pH 7.5): 1.70 ± 0.45 µg/L (≈ 1.51 nM) | IC50 (Tween 20 0.000%, 15 mM PBS, pH 8.5): 0.68 ± 0.26 µg/L (≈ 0.602 nM) | IC50 (Tween 20 0.010%, 15 mM PBS, pH 8.5): 0.56 ± 0.23 µg/L (≈ 0.496 nM) | IC50 (Tween 20 0.025%, 15 mM PBS, pH 8.5): 0.58 ± 0.19 µg/L (≈ 0.514 nM) | IC50 (Tween 20 0.050%, 15 mM PBS, pH 8.5): 0.49 ± 0.15 µg/L (≈ 0.434 nM) | IC50 (Tween 20 0.100%, 15 mM PBS, pH 8.5): 0.39 ± 0.08 µg/L (≈ 0.345 nM) | IC50 (optimal conditions (15 mM PBS, pH 8.5, 0.25% Tween 20), set of 20 calibration curves): 0.36 ± 0.05 µg/L (≈ 0.319 nM) | detection limit (LD, estimated at 10% inhibitory concentration) (optimal conditions, 20 calibration curves): 0.01 µg/L | IC50 (pH 4.5, 15 mM PBS, 0.05% Tween 20): 0.63 ± 0.21 µg/L (≈ 0.558 nM) | IC50 (pH 5.5, 15 mM PBS, 0.05% Tween 20): 0.86 ± 0.23 µg/L (≈ 0.762 nM) | IC50 (pH 6.5, 15 mM PBS, 0.05% Tween 20): 0.91 ± 0.27 µg/L (≈ 0.806 nM) | IC50 (pH 7.5, 15 mM PBS, 0.05% Tween 20): 0.77 ± 0.24 µg/L (≈ 0.682 nM) | IC50 (pH 8.5, 15 mM PBS, 0.05% Tween 20): 0.49 ± 0.15 µg/L (≈ 0.434 nM) | IC50 (pH 9.5, 15 mM PBS, 0.05% Tween 20): 0.50 ± 0.19 µg/L (≈ 0.443 nM) | IC50 (serum screening, before optimization, pair KLH-R3 (I)/BSA-R3 (1:2000/0.03 mg/L)): 1.30 µg/L (≈ 1.15 nM)
